Several values for one entry are separate records, joined by “and”; a condition that tells them apart may be missing. Identical values can stand only once. Like-named read-outs stand apart in the source and are kept apart here.
How the values were obtained:
HCT-116 cells = assay: Cell viability (cytotoxicity, LDH release) assay; assay type: cell-based; settings: Homo sapiens, 24 h; for viability at 100 µg/mL: read-out: percent of viable cells
Method: The synthesized compounds were also examined at four concentrations (10, 25, 50 and 100 µg/mL) for their cytotoxic effects on human colorectal cancer HCT-116 cells after their incubation together for 24 h.
Cytotoxic potency was examined for a human colon cancer cell line HCT-116 (American Type Culture Collection; Manassas, VA, USA) using various amounts of each compound (10, 25, 50 and 100 µg). Samples were diluted in Dulbecco’s Modified Eagle’s Medium, consisting of 10% Fetal Bovine Serum, and added to cells grown and cultured for 24 h in a 5% CO2-humidified incubator at 37 °C. Then, the activity of lactate dehydrogenase released from damaged cells was determined in the collected supernatant aliquots using an ELISA endpoint assay (Benchmark Plus, Bio-Rad, Hercules, CA, USA). As positive and negative controls, respectively, 0.1% Triton X-100 in the assay medium and the assay medium only were used. Cell viability, shown as mean values ± SDs (n = 3), was expressed as a relative percentage of the OD values determined at 600 nm in compound-treated cells and the control.

[1] = DPPH radical scavenging assay; settings: for IC50: 0.03 to 1 mg/mL, 1 h, mean ± SD, triplicate, read-out: IC50 (mM) for DPPH Scavenging Potency
Method: The IC50 values for DPPH were calculated from the plot of the scavenging effect against the compound concentration.
The compounds’ capacities to scavenge the stable radical 1,1 diphenyl-2-picrylhydrazyl (DPPH) formed in solution by donation of a hydrogen atom or an electron was investigated according to the method described by Bersuder and coworkers. Due to the fact that the initial blue/purple solution of diphenyl picrylhydrazine changes to yellow in the presence of compounds with a capacity to scavenge DPPH free radicals, this reaction is used as a measure of a compound’s ability to scavenge any free radical. Briefly, a 0.5 mL volume of DPPH ethanolic solution was mixed with an equal volume of each sample concentration (0.03 to 1 mg/mL), shaken strongly and incubated at room temperature for 1 h in darkness. The absorbance of the residual DPPH radicals was measured at 519 nm and compared to that of the control (without the tested compound). DPPH radical scavenging was calculated using the following formula: Scavenging effect (%) = (1 − Acompound/AControl) × 100, where Acompound and Acontrol are the absorbances of the tested compound and of the control, respectively. A plot of the scavenging effect (%) versus the sample concentration was also performed to determine the compound concentration providing 50% inhibition (IC50).

S. enteric (ATCC 43972) [2] = assay: Antibacterial viability (CFU) assay, IC50; assay type: cell-based; settings: read-out: IC50
Method: (§1) The results for the in vitro antibacterial properties of the synthesized compounds against five Gram-positive and four Gram-negative human-pathogenic strains, which were assessed by both the agar diffusion method (based on inhibition zone (IZ)) and the broth dilution bioassay (for the determination of the half-maximal inhibitory concentration (IC50) values), using ampicillin as the reference antibiotic drug, are shown in Table 2 and Table 3.
(§2) The antibacterial activity of all synthesized compounds was evaluated against the Gram-negative strains E. coli (ATCC 25966), K. pneumonia (ATCC 700603), P. aeruginosa (ATCC 27853) and S. enteric (ATCC 43972) and against the Gram-positive strains B. cereus (ATCC 14579), B. subtilis (ATCC 6633), E. faecalis (ATCC 29122), S. aureus (ATCC 25923) and S. epidermidis (ATCC 14990), using the agar diffusion method through measuring the appearance of the inhibition zone on the surface of the top agar, as reported by Berghe and Vlietinck. Ampicillin (10 µg/well) was used as the positive reference standard. Bacterial viability was also investigated by determining the colony-forming ability (CFU) of bacteria incubated at different time intervals without or with appropriate amounts of the compound, which were mixed with 2 ×10^7 CFU/mL in sterile BHI and incubated under shaking for 60 min at 37 °C. Samples were serially diluted into sterile BHI, streaked onto media agar plates and incubated for 24 h at 37 °C. The antibacterial potency of the tested compounds was expressed as the residual number of CFUs with reference to the initial inoculums. The results presented as the half-maximal (50 %) inhibitory concentration (IC50) values are the means of three different measurements.

B. subtilis (ATCC 6633) [3] = assay: Antibacterial viability (CFU) assay, IC50; assay type: cell-based
Method: as §1, §2

[4] = test system: K. pneumonia (ATCC 700603); assay: Antibacterial viability (CFU) assay, IC50; assay type: cell-based; settings: Klebsiella pneumoniae, ATCC700603
Method: as §1, §2

[5] = test system: P. aeruginosa (ATCC 27853); assay: Antibacterial viability (CFU) assay, IC50; assay type: cell-based; settings: Pseudomonas aeruginosa, ATCC27853
Method: as §1, §2

S. aureus (ATCC 25923) [6] = assay: Antibacterial viability (CFU) assay, IC50; assay type: cell-based; settings: Staphylococcus aureus, ATCC25923
Method: as §1, §2

B. cereus (ATCC 14579) [7] = assay: Antibacterial viability (CFU) assay, IC50; assay type: cell-based; settings: Bacillus cereus, ATCC14579
Method: as §1, §2

E. faecalis (ATCC 29122) [8] = assay: Antibacterial viability (CFU) assay, IC50; assay type: cell-based; settings: Enterococcus faecalis, ATCC29122
Method: as §1, §2

E. coli (ATCC 25966) [9] = assay: Antibacterial viability (CFU) assay, IC50; assay type: cell-based; settings: Escherichia coli, ATCC25966; E. coil (ATCC 25966)
Method: as §1, §2

[10] = test system: S. epidermidis (ATCC 14990); assay: Antibacterial viability (CFU) assay, IC50; assay type: cell-based; settings: Staphylococcus epidermidis, ATCC14990
Method: as §1, §2

S. enteric (ATCC 43972) [11] = assay: Antibacterial agar diffusion method (inhibition zone); assay type: cell-based
Method: as §1, §2

B. subtilis (ATCC 6633) [12] = assay: as above; assay type: cell-based
Method: as §1, §2

[13] = test system: K. pneumonia (ATCC 700603); assay: as above; assay type: cell-based
Method: as §1, §2

[14] = test system: P. aeruginosa (ATCC 27853); assay: as above; assay type: cell-based
Method: as §1, §2

S. aureus (ATCC 25923) [15] = assay: as above; assay type: cell-based
Method: as §1, §2

B. cereus (ATCC 14579) [16] = assay: as above; assay type: cell-based
Method: as §1, §2

E. faecalis (ATCC 29122) [17] = assay: as above; assay type: cell-based
Method: as §1, §2

E. coli (ATCC 25966) [18] = assay: as above; assay type: cell-based; settings: E. coil (ATCC 25966)
Method: as §1, §2

[19] = test system: S. epidermidis (ATCC 14990); assay: as above; assay type: cell-based
Method: as §1, §2

[20] = Reducing power assay (FRAC, Fe3+ to Fe2+); settings: 0-1 mg/mL, absorbance 700 nm
Method: Secondly, FRAC was determined over the concentration range of 0.0−1 mg/mL via monitoring Fe^3+−Fe^2+ transformation in the presence of the studied compounds and the reference antioxidant BHT to estimate the values of efficient concentration (EC50), expressed in mM.
The reducing power of the studied compounds was assessed according to Oyaizu’s method. Briefly, different concentrations (ranging from 0 to 1 mg/mL) of each tested compound were first mixed with 1 mL of 0.2 M sodium phosphate buffer (pH 6.6) and 1 mL of 1% potassium ferricyanide (K3Fe(CN)6) and incubated at 50 °C for 20 min. After the addition of 1.25 mL of 20% trichloroacetic acid (TCA), the mixture was centrifuged for 10 min at 3000 rpm and the upper layer solution was then mixed with 0.5 mL of 0.1% fresh ferric chloride and an equal volume of deionized water. Finally, the absorption of the resulting mixture was measured at 700 nm using a UV spectrophotometer against distilled water as the blank, while butylated hydroxytoluene (BHT) was used as a positive control. The sample ferric reducing power capability was indicated by increased absorbance.

[21] = read-out: Mean IC50 (µM) of cytotoxicity
[22] = read-out: Mean IC50 (µg/mL) of cytotoxicity
[23] = Bacillus subtilis, ATCC6633, B. subtilis (ATCC 6633)

With Cc1[nH]nc2c1C(c1cccc(O)c1Cl)C(C#N)=C(N)O2 (stereo not drawn) [5a, 6-Amino-4-(2-chloro-3-hydroxy-phenyl)-3-methyl-2,4-dihydro-pyrano[2,3-c]pyrazole-5-carbonitrile] the viability at 100 µg/mL (HCT-116 cells) was 11 to 32.5%, the IC50 (HCT-116 cells; [21]) was 189 ± 10.8 µM and the IC50 (HCT-116 cells; [22]) was 60 ± 3.28 µg/mL. The IC50 [1] was 0.826 ± 0.092 mM, the “DPPH Radical Scavenging Effenciency (%) at 1 mg/mL” value [1] was 45.50 ± 2.12% and the IC50 (S. enteric (ATCC 43972) [2]) was 105 ± 1.32 µM. The IC50 (B. subtilis (ATCC 6633) [3]; [23]) was 62.43 ± 0.46 µM, the IC50 [4] was 96.5 ± 4.96 µM and the IC50 [5] was 85.9 ± 3.3 µM. For the same compound, the IC50 (S. aureus (ATCC 25923) [6]) was 43.9 ± 1.39 µM, the IC50 (B. cereus (ATCC 14579) [7]) was 62.43 ± 0.46 µM and the IC50 (E. faecalis (ATCC 29122) [8]) was 51.9 ± 1.39 µM. For the same compound, the IC50 (E. coli (ATCC 25966) [9]) was 110 ± 5.95 µM, the IC50 [10] was 54.8 ± 1.88 µM and the “IZ (mm)” value (S. enteric (ATCC 43972) [11]) was 4.5 ± 0.7 mm. The “IZ (mm)” value (B. subtilis (ATCC 6633) [12]) was 12.50 ± 0.71 mm, the “IZ (mm)” value [13] was 6.0 ± 1.4 mm and the “IZ (mm)” value [14] was 5.5 ± 0.7 mm. For the same compound, the “IZ (mm)” value (S. aureus (ATCC 25923) [15]) was 14.00 ± 1.40 mm, the “IZ (mm)” value (B. cereus (ATCC 14579) [16]) was 12.50 ± 0.71 mm and the “IZ (mm)” value (E. faecalis (ATCC 29122) [17]) was 10.50 ± 0.71 mm. The “IZ (mm)” value (E. coli (ATCC 25966) [18]) was 2.8 ± 0.21 mm, the “IZ (mm)” value [19] was 13.50 ± 0.71 mm and the melting point was 240 to 242 °C. It also gave an EC50 [20] of 363 ± 47 µM.

For CC1=C(C(=O)OCc2ccccc2)C(c2ccc(F)cc2)C(C#N)=C(N)O1 (stereo not drawn) [4i, 6-Amino-5-cyano-4-(4-fluoro-phenyl)-2-methyl-4H-pyran-3-carboxylic acid benzyl ester], the viability at 100 µg/mL (HCT-116 cells) was 11 to 32.5%, the IC50 (HCT-116 cells; [21]) was 181 ± 12.4 µM and the IC50 (HCT-116 cells; [22]) was 66 ± 4.53 µg/mL. The IC50 [1] was 1.78 ± 0.115 mM, the “DPPH Radical Scavenging Effenciency (%) at 1 mg/mL” value [1] was 26.05 ± 1.06% and the IC50 (S. enteric (ATCC 43972) [2]) was 91.5 ± 2.74 µM. For the same compound, the IC50 (B. subtilis (ATCC 6633) [3]; B. subtilis (ATCC 6633)) was 31.6 ± 1.95 µM, the IC50 (B. subtilis (ATCC 6633) [3]; [23]) was 23.6 to 36.8 µM and the IC50 [4] was 79.9 ± 3.02 µM. For the same compound, the IC50 [5] was 62 ± 2.2 µM, the IC50 (S. aureus (ATCC 25923) [6]) was 40.2 ± 1.37 µM and the IC50 (B. cereus (ATCC 14579) [7]) was 38 ± 1.37 µM. For the same compound, the IC50 (E. faecalis (ATCC 29122) [8]) was 37.5 ± 1.37 µM, the IC50 (E. coli (ATCC 25966) [9]) was 82.6 ± 1.65 µM and the IC50 [10] was 46 ± 0.96 µM. For the same compound, the “IZ (mm)” value (S. enteric (ATCC 43972) [11]) was 8.0 ± 1.4 mm, the “IZ (mm)” value (B. subtilis (ATCC 6633) [12]) was 9.50 mm and 9.50 ± 0.71 mm and the “IZ (mm)” value [13] was 6.5 ± 0.7 mm. For the same compound, the “IZ (mm)” value [14] was 8.5 ± 0.7 mm, the “IZ (mm)” value (S. aureus (ATCC 25923) [15]) was 9.50 ± 2.12 mm and the “IZ (mm)” value (B. cereus (ATCC 14579) [16]) was 14.50 ± 0.71 mm. For the same compound, the “IZ (mm)” value (E. faecalis (ATCC 29122) [17]) was 6.50 ± 0.71 mm, the “IZ (mm)” value (E. coli (ATCC 25966) [18]) was 5.5 ± 0.71 mm and the “IZ (mm)” value [19] was 11.50 ± 0.71 mm. It also gave a melting point of 124 to 126 °C and an EC50 [20] of 274 ± 39 µM.
